Results on 80 compounds are retold here after the METLIN SMRT retention time set (Domingo-Almenara et al. 2019).

The nature of the series: gradient 5% acetonitrile 3 min, to 50% in 2 min, to 85% in 15 min, held 3 min, 100 µL/min. The note with it: column: Zorbax Extend-C18 2.1 x 50 mm; eluents: water / acetonitrile, 0.1% formic acid. A digest of the protocol: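 In both positive and negative ionization mode, a quadrupole time-of-flight mass spectrometer coupled to HPLC analyzed pure standards run in mixtures of ~100 molecules. The Zorbax Extend-C18 column (2.1 × 50 mm, 1.8 μm) was operated at 100 μL/min with water and acetonitrile, each containing 0.1% formic acid. The dead volume was 40 μL and the dwell volume 900 μL. Retention time came from adduct peaks that were computationally picked and individually inspected by hand.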
`Cc1ccc(NC(=O)N(C)CCc2noc(COc3ccccc3)n2)c(C)c1` displayed an RP-LC retention time of 934 s.
As for `COc1ccc(CNC(=O)NCc2cccnc2OC)cc1`, the figure is 691 s.
As for `CC(C)NC(=O)c1ccnn1C`, the figure is 604 s.
Consider `Cc1cc(-c2ccc(S(=O)(=O)N3CCC(C(=O)NCc4ccccc4C)CC3)o2)n[nH]1`, for which the RP-LC retention time was 816 s.
For `Cc1cc(C)c(C(=O)N2CCC(CC(=O)NCc3cccc(Br)c3)CC2)[nH]1`, the RP-LC retention time was determined as 820 s.
The result for `CCc1nc(-c2ccc(-c3noc(CNS(=O)(=O)c4ccc(Cl)cc4)n3)cc2)cs1` reads 1110 s.
The result for `CCOc1ccc(NC(=O)Cn2nc3cc(-c4ccccc4)nc(C)n3c2=O)cc1` reads 838 s.
The compound `CNC(=O)C1CCCN(c2nc3ncn(CC(=O)Nc4ccc(Cl)cc4)c(=O)c3s2)C1` (stereo not given) displayed an RP-LC retention time of 685 s.
In turn, `CCOC(=O)Cc1csc(NC(=O)C2CCN(C(C)=O)CC2)n1` showed an RP-LC retention time of 631 s.
The result for `CCc1nnc(NC(=O)CSc2nnc(-c3ccc(Cl)cc3)o2)s1` reads 826 s; that for `Cc1cc(NC(=O)Cc2nn(C)c(=O)c3ccccc23)ccc1Br`, 856 s; that for `COCCN1C(=O)CCc2cc(NC(=O)CC3CCCCC3)ccc21`, 814 s.
As for `CC(C)CCN1C(=O)CC[C@]2(C(=O)N3CCN(c4ccc(F)cc4)CC3)CCCC[C@@H]12`, the figure is 1010 s.
`Cc1cccc(CNC(=O)Cn2c(C)cc(-c3nnc(C4CCC4)o3)c2C)c1` had an RP-LC retention time of 883 s.
As to `CCCCNC(=O)C1c2ccccc2C(=O)N(C)C1c1cccs1` (stereo not given), the RP-LC retention time was found to be 775 s.
Take `O=c1c2c(ccn1Cc1nc(-c3ccsc3)no1)ccn2CC1CC1`: the RP-LC retention time was found to be 980 s.
As for `COc1ccc(-c2cn3ccn(-c4ccc(Cl)cc4)c(=O)c3n2)cc1OC`, the figure is 887 s; as for `O=C1C(NS(=O)(=O)c2ccc(C(F)(F)F)cc2)CCN1c1ccc(F)cc1` (stereo not given), 964 s; as for `CCC1CCCCN1Cc1nc(Cn2ccn3nc(-c4ccccc4)cc3c2=O)no1` (stereo not given), 676 s.
The result for `O=C(c1ccncc1)N1CCCCC1c1nc(-c2ccc(F)cc2)no1` (stereo not given) reads 673 s; that for `Cc1cc(C)c2c(SC(C)C)nc(N)nc2n1`, 676 s.
As for `O=C(NCc1ccc(F)cc1)C1CCCN(c2nc3ccccc3n(Cc3ccccc3)c2=O)C1` (stereo not given), the figure is 1140 s; as for `CCNC(=O)c1nc2ccccc2n(CC)c1=O`, 659 s.
In the case of `CC1=C(c2ccc(C(C)C)cc2)S(=O)(=O)N=C1N1CCC(C(=O)NCc2ccco2)CC1`, the RP-LC retention time was 939 s.
In the case of `CCc1nc(-c2csc(S(=O)(=O)N3CCC(C(=O)Nc4ccccc4)CC3)c2)no1`, the RP-LC retention time was determined as 952 s.
The compound `COc1ccccc1NC(=O)Cn1nc2c(N3CCCCCC3)nccn2c1=O` registered an RP-LC retention time of 696 s.
The result for `COC(=O)CNC(=O)N(C)Cc1nc2cc(C(=O)N3CCCC3)ccc2n1C` reads 566 s; that for `Cc1ccc(-c2csc(NC(=O)CN3CCN(Cc4ccc5c(c4)OCO5)CC3)n2)cc1`, 737 s.
The compound `CC1CCCCN1c1ccn2c(=O)n(CC(=O)Nc3ccc(F)cc3)nc2n1` (stereo not given) gave an RP-LC retention time of 759 s.
`CCCNC(=O)c1cn(-c2ccc(S(=O)(=O)N3CCCC(C)C3)cn2)cn1` (stereo not given) came in with an RP-LC retention time of 884 s.
For `CCn1nc2ccc(S(=O)(=O)N3CCC(C)CC3)cn2c1=O`, the RP-LC retention time stood at 827 s.
The result for `O=C(COc1ccccc1)N1CCCC(COc2ccc(C(=O)N3CCCC3)cc2)C1` (stereo not given) reads 808 s.
The compound `Cn1nc(-c2ccccc2)cc1C(=O)Nc1nc2c(s1)CN(S(=O)(=O)C1CC1)CC2` yielded an RP-LC retention time of 854 s.
`COC(=O)c1cc(S(=O)(=O)N2CCCC2C(=O)Nc2ccc3c(c2)OCCO3)cn1C` (stereo not given) came in with an RP-LC retention time of 794 s.
On to `COCCn1cc(CCNC(=O)Nc2ccc(Cl)cc2F)c2cccnc21`, for which the RP-LC retention time was found to be 806 s.
`O=C(c1cn2cc(Cl)ccc2n1)N1CCN(c2ccccc2F)CC1` gave an RP-LC retention time of 833 s.
Compound `O=c1ccc(-c2ccc3c(c2)OCO3)nn1CCc1nc(-c2ccc(F)c(Br)c2)no1` registered an RP-LC retention time of 1030 s.
`CC(C)c1cccc(NC(=O)C2CCN(C(=O)c3ncn4c3COC(c3ccc(F)cc3)C4)CC2)c1` (stereo not given): the RP-LC retention time came out at 931 s.
The result for `CN(C)C[C@@H]1CN(c2ccncn2)C[C@H]1NC(=O)c1ccc2ccccc2n1` reads 595 s; that for `COc1ccc(N2CC(c3nc(-c4ccccc4Cl)no3)CC2=O)cc1OC` (stereo not given), 878 s; that for `Cc1ccc(CCC(=O)Nc2ccc(SC(F)F)cc2)o1`, 919 s.
As for `O=C(Cc1c[nH]c2ccccc12)NC1CCN(c2ccc(=O)[nH]n2)C1` (stereo not given), the figure is 600 s; as for `NS(=O)(=O)c1cccnc1Nc1ccc(Br)cc1`, 913 s.
For the compound `COc1ccc(NC(=O)Cn2cnc3nc4c(cc3c2=O)CCCC4)cc1OC`, the RP-LC retention time is 676 s.
As for `COC(=O)c1ccc(NC(=O)N2[C@H]3CC[C@@H]2c2cnc(C)nc2C3)cc1`, the figure is 653 s; as for `Cc1nc(Nc2ccccn2)sc1C(=O)N1CCN(c2ccccc2F)CC1`, 841 s; as for `O=C(Cc1ccc(F)cc1)N1CCN(C(=O)c2nnn3c2COC(c2ccc(F)cc2)C3)CC1` (stereo not given), 861 s.
In the case of `CCOC(=O)c1c(C)c(CCC(=O)NC(C)c2ccccc2)n(C)c1C` (stereo not given), the RP-LC retention time stood at 904 s.
The result for `Cc1cc2c(c(=O)n(-c3ccccc3)c(=O)n2CC(=O)Nc2cccc(C(C)C)c2)n1C` reads 975 s; that for `COc1ccccc1-c1noc(-c2nc(-c3ccc4c(c3)OCO4)no2)n1`, 1120 s.
As for `O=C(CN1CCC(COCc2ccccc2)CC1)Nc1ccc2c(c1)OCCO2`, the figure is 605 s.
The result for `CS(=O)(=O)N1CCCCC1c1nncn1Cc1ccccc1` (stereo not given) reads 691 s; that for `CCc1cc(=O)n(CC(=O)Nc2cccc(F)c2)c(N2CCOCC2)n1`, 763 s; that for `O=C(Nc1ccc(F)cc1)c1c(O)c2cccnc2n(-c2ccccc2)c1=O`, 1240 s.
In the case of `O=C(NCC1CC1)C1CCN(c2nc3ccsc3c(=O)n2Cc2ccc(F)cc2)CC1`, the RP-LC retention time came to 826 s.
As for `O=C(NC1CC1)[C@@H]1C[C@H](Oc2cccnc2)CN1C(=O)C1CC=CC1`, the figure is 567 s; as for `O=C(Nc1ccc2nc3n(c(=O)c2c1)CCCC3)Nc1ccc(Br)cc1F`, 782 s.
As to `Cc1nc2cccnc2n1CC1CCCN(S(=O)(=O)c2ccc3c(c2)CCCC3)C1` (stereo not given), the RP-LC retention time turned out to be 831 s.
Compound `Cc1cc(C(=O)NC2CC2)c2cc(C(C)C)ccc2n1` yielded an RP-LC retention time of 636 s.
The compound `COc1ccc(C(=O)N2CCN(c3c(C)n(C)c(=O)n(C)c3=O)CC2)cc1` registered an RP-LC retention time of 697 s.
Consider `COCC1(O)CCOC2(CCN(C(=O)c3cccs3)CC2)C1` (stereo not given), for which the RP-LC retention time was determined as 621 s.
Compound `O=S(=O)(Cc1ccccc1Cl)N(Cc1ccsc1)C1CC1` displayed an RP-LC retention time of 1000 s.
Compound `COc1ccccc1N1CCN(C(=O)c2csc3nc(-c4ccc(F)cc4)cn23)CC1` gave an RP-LC retention time of 879 s.
Consider `CCN(CCN(C)C)c1ccc(C(=O)O)cc1NS(=O)(=O)c1ccc(C)cc1`, for which the RP-LC retention time is 623 s.
The result for `CCn1ccc(C(=O)N2CCN(c3nc(CN4CCC(C)CC4)cs3)CC2)n1` reads 613 s; that for `NS(=O)(=O)c1ccc(NC2(C(=O)O)CCCC2)cc1`, 1010 s; that for `Cc1cccc2c1NC(=O)C2(O)CC(=O)c1ccc(C(C)C)cc1` (stereo not given), 860 s.
The result for `CCc1ccc(S(=O)(=O)c2cnc(N3CCc4ccccc4C3)nc2N)cc1` reads 1170 s; that for `CC1=NS(=O)(=O)N(C)C=C1C(=O)OCCOc1ccccc1`, 921 s; that for `CNc1cc(C)nc2c(-c3ccc(Cl)cc3)cnn12`, 731 s.
`CCc1ccc(Oc2cc(N3CCC(C(=O)NC4CCC(C)CC4)CC3)ncn2)cc1` (stereo not given) yielded an RP-LC retention time of 1120 s.
`Cc1ccc2[nH]cc(CCNC(=O)CS(=O)Cc3cnn(-c4ccccc4)c3-n3cccc3)c2c1` (stereo not given) gave an RP-LC retention time of 875 s.
As to `Cc1nc(C(=O)OCc2cc(-c3cccs3)on2)cs1`, the RP-LC retention time was found to be 785 s.
The result for `COc1ccc(CCNc2nc(N3CCc4cc(OC)c(OC)cc4C3)c3cc(OC)c(OC)cc3n2)cc1OC` reads 833 s.
The result for `COc1ccc(-n2nc3c(N4CCCC(C(=O)NCc5cccs5)C4)nnc(C)c3c2C)cc1` (stereo not given) reads 724 s; that for `COc1ccccc1CNC(=O)c1nnc(-c2ccc(S(=O)(=O)N(C)C)cc2)o1`, 852 s.
Turning to `Cc1cc(N2CCCC2)n2nc(CN3CCC4(CC3)OCCO4)nc2n1`, the RP-LC retention time came out at 572 s.
As for `O=C(Nc1nnc(SCc2c(F)cccc2Cl)s1)c1cc(C2CC2)on1`, the figure is 1010 s; as for `CN1C2CCC1CC(OC(=O)[C@H](CO)c1ccccc1)C2` (stereo not given in full), 667 s; as for `O=C(Cn1c(=O)n(-c2ccccc2)c2ncccc21)NCCN1CCCCC1`, 585 s.
